Experimental data as given in PMC9179882 (Cancers, 2022).

Test system: SW480 xenograft
Test: SW480 xenograft study in NSG mice
Format: in vivo, NOD scid gamma (NSG) mice
Experimental: NOD scid gamma (NSG) mice were purchased from CIBM-UGR and housed at the animal facility according to institutional guidelines (Approved Ethical Committee #152-CEEA-OH-2016). For xenograft generation, 1 × 10^5 SW480 cells in 100 μL PBS were subcutaneously injected into the flank of 8-week-old female mice. Treatment started when tumors reached ~20 mm^3. Mice were randomly divided into two groups of seven mice each and treated with either vehicle DMSO or 200 mg/kg of GA intraperitoneally every other day for 38 days. Animals were monitored every two days after cell injection until final time point when they were sacrificed, and tumors were dissected for further analyses. Specifically, tumor volumes were determined every two days using digital calipers according to the formula: In progress tumor volume = (π × length × width^2)/6 [12].
Fixation, paraffin-embedding, and sectioning of tumor samples were performed by the histopathology core service at the Centre for Genomics and Oncological Research (Granada, Spain). In order to evaluate the percentage of proliferating cells, tumor sections were immunostained with Ki67 and counterstained with hematoxylin and eosin (H&E) at Atrys Health (Barcelona, Spain). The staining was visualized using NDP.view2 Viewing software (Hamamatsu), and Ki67 coverage was quantified on ten different images per tumor using Fiji software. In order to measure BG4 signal, tumor sections were dewaxed and rehydrated following standard methods. Epitope retrieval was performed at 100 °C for 20 min with citrate buffer (citrate-based buffer pH 6.0) according to previous studies. […] Slides were then counterstained for 5 min with DAPI to visualize the cell nuclei. Antifade Mowiol (81381, Merck, Darmstadt, Germany) was used as mounting media. Images were acquired on a Confocal Zeiss LSM 710 inverted microscope with a 63× immersion objective. BG4 mean nuclear fluorescence intensity was quantified using Fiji software (N > 2000). Antibodies used are listed in Supplementary Table S1.
We investigated the activity of GA in a mouse xenograft model of CRC to determine if the in vitro activity of GA was paralleled in vivo. According to previous reports with SW480 cells, we executed xenograft studies by subcutaneous injection in NOD scid gamma (NSG) mice. Intraperitoneal treatment started when tumors reached ~20 mm^3 (35 days post-injection), and a therapeutic schedule with either a vehicle or 200 mg/kg of GA, every other day for 38 days, was explored based on previous studies. Initially, each group included seven animals but two mice from the control group were excluded because the tumors had developed late. Therefore, five mice were considered in the control group and seven in the GA-treated one. […] In particular, when comparing the tumor volume between control and treated animals at each time point by Student’s two-tailed t-test, significant differences were observed from the 23rd day after initiation of the treatment. Histopathological analyses of tumors from animals sacrificed at the ending point were also conducted. […] Furthermore, immunohistochemical assessment of the antigen Ki67 was used to estimate cell proliferation.

[1] = tumors at end point, 200 mg/kg GA

## O=C(O)c1cc(O)c(O)c(O)c1 [Gallic acid, 3,4,5-trihydroxybenzoic acid]
200 mg/kg GA i.p. every other day for 38 days
  body weight reduction or adverse effects: No body weight reduction or adverse effects such as tumor ulceration was observed
200 mg/kg GA i.p. every other day for 38 days vs vehicle
  progression of tumor xenografts (tumor volume): robust blockade on the progression of tumor xenografts
CRC xenografts treated with GA
  damage to major organs: without causing observable damage to major organs
Responder mice, 200 mg/kg GA
  5′ETS expression in tumors (qRT-PCR): significantly downregulated
  CMYC expression in tumors (qRT-PCR): significantly downregulated
[1]
  Ki67 coverage in tumor sections: coverage of Ki67 was significantly decreased
  nuclear BG4 signal in tumor sections: significant increase in nuclear BG4 signal
